# From BindingDB's records for PubMed 2885412 (Unwersity of Misscuri, 1987)
# Values joined by “and” are separate entries in the source; they are usually repeats but may differ in a detail not shown here. Identical values can stand only once.
# Target: T1, Alpha-1A adrenergic receptor (Canis lupus familiaris, UniProt O77621)
# T1 sequence (O77621 whole entry): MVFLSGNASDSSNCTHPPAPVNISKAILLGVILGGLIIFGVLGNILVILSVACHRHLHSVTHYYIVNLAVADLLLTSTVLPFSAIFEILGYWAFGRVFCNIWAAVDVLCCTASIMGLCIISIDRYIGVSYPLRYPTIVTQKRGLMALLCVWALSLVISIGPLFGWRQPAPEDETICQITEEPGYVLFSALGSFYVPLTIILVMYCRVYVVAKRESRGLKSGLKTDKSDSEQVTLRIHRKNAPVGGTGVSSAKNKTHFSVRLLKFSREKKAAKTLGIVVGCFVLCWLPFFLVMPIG
row,SMILES,Ki
1,"Clc1cccc(Cl)c1N=C1NCCN1 [2-(2,6-dichloroanilino)-2-imidazoline]",37 nM
2,CNCC(O)c1ccc(O)c(O)c1 (stereo not drawn) [EPINEPHRINE],110 nM and 30 nM
3,"NCC(O)c1ccc(O)c(O)c1 (stereo not drawn) [Noradrenaline,(+)]",178 nM and 67 nM
4,CNC[C@H](O)c1cccc(O)c1 [PHENYLEPHRINE],901 nM and 213 nM
5,Cc1ccc(N(CC2=NCCN2)c2cccc(O)c2)cc1 [SMR000059054],2.55 nM and 1.27 nM
6,Cc1cc(C(C)(C)C)c(O)c(C)c1CC1=NCCN1 [SMR000059324],33 nM and 9 nM
7,COc1cc2nc(N3CCN(C(=O)c4ccco4)CC3)nc(N)c2cc1OC [[3H]-Minipress],0.02 nM and 0.01 nM
8,COC(=O)[C@@H]1[C@H]2C[C@H]3c4[nH]c5ccccc5c4CCN3C[C@@H]2CC[C@@H]1O [yohimbic acid methyl ester],32 nM and 13.4 nM
